Patent publication US7820623B2 (priority 2006, dated 2010)
Where two headings read alike, the source gives them in different places. Bridge positions count the residues as written; N and C are the ends. Square brackets hold non-standard residues; d marks the D form. Peptide text beside a SMILES is read from it. 1Nal = N[C@@H](Cc1cccc2ccccc12)C(=O)O

What was measured:
[1] = tested on: thapsigargin-induced IFN-g production in human whole blood; format: cell-based
[2] = tested on: thapsigargin-induced IL-2 production in human whole blood
[3] = read-out: Analogue Activity (IC50) WB/IFNg
[4] = read-out: Analogue Activity (IC50) WB/IL-2

Compound: CC[C@H](C)[C@@H]1NC(=O)[C@H](CCCCN)NC(=O)[C@@H](NC(=O)[C@H](CCCCN)NC(=O)[C@@H](NC(=O)[C@H](CC(N)=O)NC(=O)[C@@H](NC(=O)[C@@H](NC(=O)[C@@H](NC(=O)CN)C(C)C)[C@@H](C)CC)[C@@H](C)CC)C(C)C)CSSC[C@@H]2NC(=O)[C@H](CCCCN)NC(=O)CNC(=O)[C@H](Cc3ccccc3)NC(=O)[C@H](CCCNC(=N)N)NC(=O)[C@H](CCSC)NC(=O)CNC(=O)[C@H](C)NC(=O)[C@H](CCCCN)NC(=O)[C@H](CCCCN)NC(=O)[C@@H]3CSSC[C@@H](C(=O)N[C@H](C(=O)N4CCC[C@H]4C(=O)N[C@@H](CCCCN)C(=O)O)[C@@H](C)O)NC(=O)[C@H](Cc4c[nH]cn4)NC(=O)[C@H](CSSC[C@H](NC(=O)[C@H](CCC(N)=O)NC(=O)[C@H](CCCNC(=N)N)NC(=O)[C@H](CO)NC1=O)C(=O)N[C@@H](CC(C)C)C(=O)N[C@@H](C)C(=O)N1CCC[C@H]1C(=O)N3)NC(=O)[C@H](CCCCN)NC(=O)CNC(=O)[C@H](CC(N)=O)NC(=O)[C@H](CCSC)NC2=O [E16A] (H-GVIINVKCKISRQCLAPCKKAGMRFGKCMNGKCHCTPK-OH; disulfide 8-28, 14-33, 18-35)
- IC50 [1, 3]: 0.101 nM
- IC50 [2, 4]: 0.101 nM

Compound: GVIANVKCKISRQCLEPCKKAGMRFGKCMNGKCHCTPK [Ala-4 (SEQ ID No: 1403)]
- IC50 ([1]; read-out: Average IC50 IFNg): 0.0873 nM
- IC50 ([2]; read-out: Average IC50 IL-2): 0.111 nM

Compound: CC[C@H](C)[C@@H]1NC(=O)[C@H](CCCCN)NC(=O)[C@@H](NC(=O)[C@H](CCCNC(=N)N)NC(=O)[C@@H](NC(=O)[C@H](CC(N)=O)NC(=O)[C@@H](NC(=O)[C@@H](NC(=O)[C@@H](NC(=O)CN)C(C)C)[C@@H](C)CC)[C@@H](C)CC)C(C)C)CSSC[C@@H]2NC(=O)[C@H](CCCCN)NC(=O)CNC(=O)[C@H](Cc3ccccc3)NC(=O)[C@H](CCCNC(=N)N)NC(=O)[C@H](CCSC)NC(=O)CNC(=O)[C@H](C)NC(=O)[C@H](CCCCN)NC(=O)[C@H](CCCCN)NC(=O)[C@@H]3CSSC[C@@H](C(=O)N[C@H](C(=O)N4CCC[C@H]4C(=O)N[C@@H](CCCCN)C(=O)O)[C@@H](C)O)NC(=O)[C@H](Cc4c[nH]cn4)NC(=O)[C@H](CSSC[C@H](NC(=O)[C@H](CCC(N)=O)NC(=O)[C@H](CCCNC(=N)N)NC(=O)[C@H](CO)NC1=O)C(=O)N[C@@H](CC(C)C)C(=O)N[C@@H](CCC(=O)O)C(=O)N1CCC[C@H]1C(=O)N3)NC(=O)[C@H](CCCCN)NC(=O)CNC(=O)[C@H](CC(N)=O)NC(=O)[C@H](CCSC)NC2=O [K7R] (H-GVIINVRCKISRQCLEPCKKAGMRFGKCMNGKCHCTPK-OH; disulfide 8-28, 14-33, 18-35)
- IC50 [1, 3]: 0.071 nM
- IC50 [2, 4]: 0.078 nM

Compound: CC[C@H](C)[C@@H]1NC(=O)[C@H](CCCCN)NC(=O)[C@@H](NC(=O)[C@H](CCCCN)NC(=O)[C@@H](NC(=O)[C@H](CC(N)=O)NC(=O)[C@@H](NC(=O)[C@@H](NC(=O)[C@@H](NC(=O)[C@H](C)N)C(C)C)[C@@H](C)CC)[C@@H](C)CC)C(C)C)CSSC[C@@H]2NC(=O)[C@H](CCCCN)NC(=O)CNC(=O)[C@H](Cc3ccccc3)NC(=O)[C@H](CCCNC(=N)N)NC(=O)[C@H](CCSC)NC(=O)CNC(=O)[C@H](C)NC(=O)[C@H](CCCCN)NC(=O)[C@H](CCCCN)NC(=O)[C@@H]3CSSC[C@@H](C(=O)N[C@H](C(=O)N4CCC[C@H]4C(=O)N[C@@H](CCCCN)C(=O)O)[C@@H](C)O)NC(=O)[C@H](Cc4c[nH]cn4)NC(=O)[C@H](CSSC[C@H](NC(=O)[C@H](CCC(N)=O)NC(=O)[C@H](CCCNC(=N)N)NC(=O)[C@H](CO)NC1=O)C(=O)N[C@@H](CC(C)C)C(=O)N[C@@H](CCC(=O)O)C(=O)N1CCC[C@H]1C(=O)N3)NC(=O)[C@H](CCCCN)NC(=O)CNC(=O)[C@H](CC(N)=O)NC(=O)[C@H](CCSC)NC2=O [G1A] (H-AVIINVKCKISRQCLEPCKKAGMRFGKCMNGKCHCTPK-OH; disulfide 8-28, 14-33, 18-35)
- IC50 [1, 3]: 0.119 nM
- IC50 [2, 4]: 0.122 nM

Compound: CC[C@H](C)[C@@H]1NC(=O)[C@H](CCCCN)NC(=O)[C@@H](NC(=O)[C@H](CCCCN)NC(=O)[C@@H](NC(=O)[C@H](CC(N)=O)NC(=O)[C@@H](NC(=O)[C@@H](NC(=O)[C@@H](NC(=O)CN)C(C)C)[C@@H](C)CC)[C@@H](C)CC)C(C)C)CSSC[C@@H]2NC(=O)[C@H](CCCCN)NC(=O)CNC(=O)[C@H](Cc3ccccc3)NC(=O)[C@H](CCCNC(=N)N)NC(=O)[C@H](CCSC)NC(=O)CNC(=O)[C@H](C)NC(=O)[C@H](CCCCN)NC(=O)[C@H](CCCCN)NC(=O)[C@@H]3CSSC[C@@H](C(=O)N[C@@H](CCCNC(=N)N)C(=O)N4CCC[C@H]4C(=O)N[C@@H](CCCCN)C(=O)O)NC(=O)[C@H](Cc4c[nH]cn4)NC(=O)[C@H](CSSC[C@H](NC(=O)[C@H](CCC(N)=O)NC(=O)[C@H](CCCNC(=N)N)NC(=O)[C@H](CO)NC1=O)C(=O)N[C@@H](CC(C)C)C(=O)N[C@@H](CCC(=O)O)C(=O)N1CCC[C@H]1C(=O)N3)NC(=O)[C@H](CCCCN)NC(=O)CNC(=O)[C@H](CC(N)=O)NC(=O)[C@H](CCSC)NC2=O [T36R] (H-GVIINVKCKISRQCLEPCKKAGMRFGKCMNGKCHCRPK-OH; disulfide 8-28, 14-33, 18-35)
- IC50 [1, 3]: 10.1 nM
- IC50 [2, 4]: 9.7 nM

Compound: GVIINVKCKISRQCLEPCAKAGMRFGKCMNGKCHCTPK [Ala-19 (SEQ ID No: 1415)]
- IC50 ([1]; read-out: Average IC50 IFNg): 0.163 nM
- IC50 ([2]; read-out: Average IC50 IL-2): 0.163 nM

Compound: CC[C@H](C)[C@@H]1NC(=O)[C@H](CCCCN)NC(=O)[C@@H](NC(=O)[C@H](CCCCN)NC(=O)[C@@H](NC(=O)[C@H](CC(N)=O)NC(=O)[C@@H](NC(=O)[C@@H](NC(=O)[C@@H](NC(=O)CN)C(C)C)[C@@H](C)CC)[C@@H](C)CC)C(C)C)CSSC[C@@H]2NC(=O)[C@H](CCCNC(=N)N)NC(=O)CNC(=O)[C@H](Cc3ccccc3)NC(=O)[C@H](CCCNC(=N)N)NC(=O)[C@H](CCSC)NC(=O)CNC(=O)[C@H](C)NC(=O)[C@H](CCCCN)NC(=O)[C@H](CCCCN)NC(=O)[C@@H]3CSSC[C@@H](C(=O)N[C@H](C(=O)N4CCC[C@H]4C(=O)N[C@@H](CCCCN)C(=O)O)[C@@H](C)O)NC(=O)[C@H](Cc4c[nH]cn4)NC(=O)[C@H](CSSC[C@H](NC(=O)[C@H](CCC(N)=O)NC(=O)[C@H](CCCNC(=N)N)NC(=O)[C@H](CO)NC1=O)C(=O)N[C@@H](CC(C)C)C(=O)N[C@@H](CCC(=O)O)C(=O)N1CCC[C@H]1C(=O)N3)NC(=O)[C@H](CCCCN)NC(=O)CNC(=O)[C@H](CC(N)=O)NC(=O)[C@H](CCSC)NC2=O [K27R] (H-GVIINVKCKISRQCLEPCKKAGMRFGRCMNGKCHCTPK-OH; disulfide 8-28, 14-33, 18-35)
- IC50 [1, 3]: 10.7 nM
- IC50 [2, 4]: 15.1 nM

Compound: CC[C@H](C)[C@H](NC(=O)[C@@H](NC(=O)CN)C(C)C)C(=O)N[C@H](C(=O)N[C@@H](CC(N)=O)C(=O)N[C@H](C(=O)N[C@@H](CCCCN)C(=O)N[C@H]1CSSC[C@@H]2NC(=O)[C@H](CCCCN)NC(=O)CNC(=O)[C@H](Cc3ccccc3)NC(=O)[C@H](CCCNC(=N)N)NC(=O)[C@H](CCSC)NC(=O)CNC(=O)[C@H](C)NC(=O)[C@H](CCCCN)NC(=O)[C@H](CCCCN)NC(=O)[C@@H]3CSSC[C@@H](C(=O)N[C@H](C(=O)N4CCC[C@H]4C(=O)N[C@@H](CCCCN)C(=O)O)[C@@H](C)O)NC(=O)[C@H](Cc4c[nH]cn4)NC(=O)[C@H](CSSC[C@H](NC(=O)[C@H](CCC(N)=O)NC(=O)[C@H](CCCNC(=N)N)NC(=O)[C@H](CO)NC(=O)[C@H](C)NC(=O)[C@H](CCCCN)NC1=O)C(=O)N[C@@H](CC(C)C)C(=O)N[C@@H](CCC(=O)O)C(=O)N1CCC[C@H]1C(=O)N3)NC(=O)[C@H](CCCCN)NC(=O)CNC(=O)[C@H](CC(N)=O)NC(=O)[C@H](CCSC)NC2=O)C(C)C)[C@@H](C)CC [I10A] (H-GVIINVKCKASRQCLEPCKKAGMRFGKCMNGKCHCTPK-OH; disulfide 8-28, 14-33, 18-35)
- IC50 [1, 3]: 0.0296 nM
- IC50 [2, 4]: 0.05 nM

Compound: CC[C@H](C)[C@@H]1NC(=O)[C@H](CCCCN)NC(=O)[C@@H](NC(=O)[C@H](CCCCN)NC(=O)[C@H](C)NC(=O)[C@H](CC(N)=O)NC(=O)[C@@H](NC(=O)[C@@H](NC(=O)[C@@H](NC(=O)CN)C(C)C)[C@@H](C)CC)[C@@H](C)CC)CSSC[C@@H]2NC(=O)[C@H](CCCCN)NC(=O)CNC(=O)[C@H](Cc3ccccc3)NC(=O)[C@H](CCCNC(=N)N)NC(=O)[C@H](CCSC)NC(=O)CNC(=O)[C@H](C)NC(=O)[C@H](CCCCN)NC(=O)[C@H](CCCCN)NC(=O)[C@@H]3CSSC[C@@H](C(=O)N[C@H](C(=O)N4CCC[C@H]4C(=O)N[C@@H](CCCCN)C(=O)O)[C@@H](C)O)NC(=O)[C@H](Cc4c[nH]cn4)NC(=O)[C@H](CSSC[C@H](NC(=O)[C@H](CCC(N)=O)NC(=O)[C@H](CCCNC(=N)N)NC(=O)[C@H](CO)NC1=O)C(=O)N[C@@H](CC(C)C)C(=O)N[C@@H](CCC(=O)O)C(=O)N1CCC[C@H]1C(=O)N3)NC(=O)[C@H](CCCCN)NC(=O)CNC(=O)[C@H](CC(N)=O)NC(=O)[C@H](CCSC)NC2=O [V6A] (H-GVIINAKCKISRQCLEPCKKAGMRFGKCMNGKCHCTPK-OH; disulfide 8-28, 14-33, 18-35)
- IC50 [1, 3]: 0.0805 nM
- IC50 [2, 4]: 0.0733 nM

Compound: CC[C@H](C)[C@@H]1NC(=O)[C@H](CCCCN)NC(=O)[C@@H](NC(=O)[C@H](CCCCN)NC(=O)[C@@H](NC(=O)[C@H](CC(N)=O)NC(=O)[C@@H](NC(=O)[C@@H](NC(=O)[C@@H](NC(=O)CN)C(C)C)[C@@H](C)CC)[C@@H](C)CC)C(C)C)CSSC[C@@H]2NC(=O)[C@H](CCCCN)NC(=O)CNC(=O)[C@H](Cc3ccccc3)NC(=O)[C@H](CCCNC(=N)N)NC(=O)[C@H](CCSC)NC(=O)CNC(=O)[C@H](C)NC(=O)[C@H](Cc3cccc4ccccc34)NC(=O)[C@H](CCCCN)NC(=O)[C@@H]3CSSC[C@@H](C(=O)N[C@H](C(=O)N4CCC[C@H]4C(=O)N[C@@H](CCCCN)C(=O)O)[C@@H](C)O)NC(=O)[C@H](Cc4c[nH]cn4)NC(=O)[C@H](CSSC[C@H](NC(=O)[C@H](CCC(N)=O)NC(=O)[C@H](CCCNC(=N)N)NC(=O)[C@H](CO)NC1=O)C(=O)N[C@@H](CC(C)C)C(=O)N[C@@H](CCC(=O)O)C(=O)N1CCC[C@H]1C(=O)N3)NC(=O)[C@H](CCCCN)NC(=O)CNC(=O)[C@H](CC(N)=O)NC(=O)[C@H](CCSC)NC2=O [K20Nal] (H-GVIINVKCKISRQCLEPCK[1Nal]AGMRFGKCMNGKCHCTPK-OH; disulfide 8-28, 14-33, 18-35)
- IC50 [1, 3]: 0.125 nM
- IC50 [2, 4]: 0.074 nM
